Measured values: patent US4269971A, “Antibiotic TM-531” (Taisho Pharmaceutical Co., Ltd., priority 1978, dated 1981)

How the values were obtained:
Micrococcus luteus NIHJ = experiment: Antimicrobial activity (MIC), agar medium; type: cell-based; conditions: heart infusion agar
Description: (§1) The antimicrobial activity of antibiotic TM-531 was determined in terms of the minimum inhibitory concentration (MIC) using a heart infusion agar medium for the determination of activity on bacteria and a potato dextrose agar medium for the determination of activity on fungi and yeast.

[1] = tested on: Aspergillus niger NHL 5088; experiment: Antimicrobial activity (MIC), agar medium; type: cell-based; conditions: potato dextrose agar
Description: as §1

[2] = tested on: Staphylococcus aureus TRP-23; experiment: Antimicrobial activity (MIC), agar medium; type: cell-based; conditions: heart infusion agar
Description: as §1

[3] = tested on: Staphylococcus aureus FDA 209 P; experiment: Antimicrobial activity (MIC), agar medium; type: cell-based; conditions: heart infusion agar
Description: as §1

Corynebacterium xerosis = experiment: Antimicrobial activity (MIC), agar medium; type: cell-based; conditions: heart infusion agar
Description: as §1

[4] = tested on: Staphylococcus aureus Smith; experiment: Antimicrobial activity (MIC), agar medium; type: cell-based; conditions: heart infusion agar
Description: as §1

[5] = tested on: Staphylococcus epidermidis TRP-13; experiment: Antimicrobial activity (MIC), agar medium; type: cell-based; conditions: heart infusion agar
Description: as §1

[6] = tested on: Staphylococcus epidermidis TPR-25; experiment: Antimicrobial activity (MIC), agar medium; type: cell-based; conditions: heart infusion agar
Description: as §1

Trichophyton asteroides = experiment: Antimicrobial activity (MIC), agar medium; type: cell-based; conditions: potato dextrose agar
Description: as §1

Candida albicans = experiment: Antimicrobial activity (MIC), agar medium; type: cell-based; conditions: potato dextrose agar
Description: as §1

Bacillus licheniformis = experiment: Antimicrobial activity (MIC), agar medium; type: cell-based; conditions: heart infusion agar
Description: as §1

[7] = tested on: Pseudomonas aeruginosa IID 1052; experiment: Antimicrobial activity (MIC), agar medium; type: cell-based; conditions: heart infusion agar
Description: as §1

Saccharomyces cerevisiae = experiment: Antimicrobial activity (MIC), agar medium; type: cell-based; conditions: potato dextrose agar
Description: as §1

[8] = tested on: Escherichia coli NIHJ C-2; experiment: Antimicrobial activity (MIC), agar medium; type: cell-based; conditions: heart infusion agar
Description: as §1

[9] = tested on: Bacillus subtilis ATCC 6633; experiment: Antimicrobial activity (MIC), agar medium; type: cell-based; conditions: heart infusion agar
Description: as §1

[10] = tested on: Streptococcus faecalis ATCC 8043; experiment: Antimicrobial activity (MIC), agar medium; type: cell-based; conditions: heart infusion agar
Description: as §1

Proteus vulgaris HX 19 = experiment: Antimicrobial activity (MIC), agar medium; type: cell-based; conditions: heart infusion agar
Description: as §1

[11] = tested on: Penicillium citrinum IAM 7003; experiment: Antimicrobial activity (MIC), agar medium; type: cell-based; conditions: potato dextrose agar
Description: as §1

Botrytis cinerea = experiment: Growth inhibitory activity on plant pathogenic microorganisms (colony diameter); type: cell-based; conditions: 100 mcg/ml, 28° C., 7 days, control medium 47.7 mm
[12] = tested on: gram-negative bacteria and yeasts; experiment: Physiological properties: activity on gram-negative bacteria and yeasts; conditions: in words
[13] = tested on: gram-positive and plant pathogenic microorganisms; experiment: Physiological properties: growth inhibitory activity; conditions: in words
protozoa = experiment: Physiological properties: activity on protozoa; conditions: protozoa as hog dysentery, coccidium, toxoplasma, trypanosome, malaria, etc.; in words
Glomerella cingulata = experiment: Growth inhibitory activity on plant pathogenic microorganisms (colony diameter); type: cell-based; conditions: 100 mcg/ml, 28° C., 7 days, control medium 27.3 mm
macrophage = experiment: Toxic sign on macrophage by optical microscope; type: cell-based; conditions: mice macrophage culture with TM-531
Description: (§2) A mice macrophage cultured on a TC-199 medium containing 20% of calf serum was infected with Toxoplasma tachyzoites (hereinafter referred to as "T. tachyzoites") and cultured at 37° C. for about 1 hour. Thereafter, the resulting culture was washed with a phosphate buffer having pH 7.2 to wash out non-infected T. tachyzoites and an ethanol solution of antibiotic TM-531 was added to the medium at an appropriate concentration of antibiotic TM-531. The medium containing the protozoa and antibiotic TM-531 was incubated at 37° C. for 48 hours and then stained with Trypan Blue, and the number of T. tachyzoites per 100 macrophages was counted to determine the antitoxoplasma activity of antibiotic TM-531 as compared with the number of T. tachyzoites per 100 macrophages in the control medium containing no antibiotic TM-531.

Eimeria tenella = experiment: Activity against Eimeria tenella in infected chicks; type: in vivo, Eimeria tenella in male chicks (white leghorn); conditions: 0.01% by weight in feed, 8 days after infection
Description: Male chicks (white leghorn species) immediately after hatching were fed with a mixed feed for chicks containing no anti-coccidium agent until the test started. On the 8th day of feeding, health conditions of the test chicks were observed and the body weight was determined thereby dividing the test chicks into three groups, each group comprising 10 chicks and having an equal distribution of body weight. The test group was fed with a mixed feed for chicks containing 0.01% by weight of antibiotic TM-531 and the infected control group and the healthy group were fed with the same mixed feed but containing no antibiotic TM-531. On the 48th hour of feeding, each of chicks of the test group and the infected control group was infected with 9×10^4 mature oocysts of Eimeria tenella by oral administration. Eight days after infection, body weight increase (%), mortality (%) and O.P.G. [The number of oocysts (×10^4) present in 1 g of the content of caecum] were determined, and faeces conditions were observed and compared with those of the healthy group to determine the activity of antibiotic TM-531 against Eimeria tenella.

Piricularia sasakii = type: cell-based; conditions: 28° C., 7 days
[14] = tested on: Helminthosporium sigmoldeum; experiment: Growth inhibitory activity on plant pathogenic microorganisms (colony diameter); type: cell-based; conditions: 100 mcg/ml, 28° C., 7 days, control medium 22.8 mm
Toxoplasma tachyzoites = experiment: Antitoxoplasma activity in infected mice macrophage culture; type: cell-based, Toxoplasma (in mice macrophage); conditions: 0.1 ppm, 37° C., 48 hours
Description: as §2

Gibberella fujikuroi = experiment: Growth inhibitory activity on plant pathogenic microorganisms (colony diameter); type: cell-based; conditions: 100 mcg/ml, 28° C., 7 days, control medium 27.6 mm
Solubility = type: physicochemical

COC1CCC(OC2CC(C3(C)CCC4(CC(O)C(C)C(C(C)/C=C(\C)C(=O)C(C)CC(C)C(=O)O)O4)O3)OC3(OC(C4OC(C)(O)C(C)CC4C)CC3C)C2C)OC1C (centres unmarked) [TM-531]
Minimum Inhibitory Concentration (Micrococcus luteus NIHJ): 3.13 µg/mL | Minimum Inhibitory Concentration [1]: > 100 µg/mL | Minimum Inhibitory Concentration [2]: 3.13 µg/mL | Minimum Inhibitory Concentration [3]: 1.56 µg/mL | Minimum Inhibitory Concentration (Corynebacterium xerosis): 1.56 µg/mL | Minimum Inhibitory Concentration [4]: 6.25 µg/mL | Minimum Inhibitory Concentration [5]: 3.13 µg/mL | Minimum Inhibitory Concentration [6]: 3.13 µg/mL | Minimum Inhibitory Concentration (Trichophyton asteroides): > 100 µg/mL | Minimum Inhibitory Concentration (Candida albicans): > 100 µg/mL | Minimum Inhibitory Concentration (Bacillus licheniformis): 1.56 µg/mL | Minimum Inhibitory Concentration [7]: > 100 µg/mL | Minimum Inhibitory Concentration (Saccharomyces cerevisiae): > 100 µg/mL | Minimum Inhibitory Concentration [8]: > 100 µg/mL | Minimum Inhibitory Concentration [9]: 1.56 µg/mL | Minimum Inhibitory Concentration [10]: 6.25 µg/mL | Minimum Inhibitory Concentration (Proteus vulgaris HX 19): > 100 µg/mL | Minimum Inhibitory Concentration [11]: > 100 µg/mL | Colony Diameter, TM-531 Containing Medium (Botrytis cinerea): 46.7 mm | effect on gram-negative bacteria and yeasts [12]: ineffective on gram-negative bacteria and yeasts | growth inhibitory activity [13]: exhibits growth inhibitory activity | effect on protozoa (protozoa): effective on protozoa | Colony Diameter, TM-531 Containing Medium (Glomerella cingulata): 13.4 mm | toxic sign on macrophage (macrophage): no toxic sign on macrophage | O.P.G. (number of oocysts present in 1 g of the content of caecum) (Eimeria tenella; infected control 17.3, healthy control 0): 0 × 10^4 | Mortality (Eimeria tenella; infected control 60, healthy control 0): 0% | Body Weight Increase (Eimeria tenella; infected control 77.0, healthy control 100.0): 105.1% | Faeces Conditions (Eimeria tenella; infected control loose passage 100%, hemafecial 80%): Normal | Colony Diameter, TM-531 Containing Medium (Piricularia sasakii): 63.0 mm | Colony Diameter, TM-531 Containing Medium [14]: 15.4 mm | Percent Macrophage infected with T. tachyzoites, 1 ~ 5/cell (Toxoplasma tachyzoites; T. tachyzoites 1 ~ 5/cell, control medium 30.8): 0% | Percent Macrophage infected with T. tachyzoites, ≥6/cell (Toxoplasma tachyzoites; T. tachyzoites ≥6/cell, control medium 22.4): 0% | Colony Diameter, TM-531 Containing Medium (Gibberella fujikuroi): 20.2 mm | Solubility in organic solvents (Solubility; methanol, ethanol, acetone, ethyl acetate, diethyl ether, benzene, chloroform, hexane and petroleum ether): soluble in methanol, ethanol, acetone, ethyl acetate, diethyl ether, benzene, chloroform, hexane and petroleum ether | Solubility in water (Solubility; water): insoluble in water
